Test results as given in patent US20220290200A1, “GENETICALLY MODIFIED HOST CELLS PRODUCING GLYCOSYLATED CANNABINOIDS” (OCTARINE BIO IVS, priority 2019, published 2022).

What was measured:
[1] = In vitro glycosyl transferase performance, purified enzymes, % conversion of cannabinoids to cannabinoid glycosides; type: biochemical; settings: acceptor CBD, UDP-Glucose
How it was run: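 His-tagged glycosyl transferases expressed in E. coli XJb (DE3) were Ni-affinity purified. Cannabinoids (in methanol) were incubated with enzyme, UDP-sugar and alkaline phosphatase without shaking at 30 °C for 24 h. Products confirmed by LC-MS/QTOF; % conversion derived from substrate decrease and glycoside peak areas against authentic standards.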

[2] = Thermodynamic aqueous solubility assay in PBS; settings: for Thermodynamic solubility: room temperature, PBS buffer pH 7.4, duplicate
Method: Alternatively, aqueous solubility was determined by a thermodynamic solubility assay as follows. 2.5 mg of test compound was weighed in a glass vial, 0.5 mL of phosphate buffered saline (pH=7.4) was added and the sample briefly vortexed. Samples were then incubated overnight at room temperature on a vial roller system to dissolve as much of the compound as possible into solution. Following incubation, the aqueous solutions were filtered in duplicate ([…]) and the filtrate diluted 1:1 with 100% methanol. Samples were further diluted where necessary and analyzed by HPLC. The concentration of compound in solution was determined by comparison to a standard curve made with authentic analytical standards.

[3] = test system: S. cerevisiae strain BY4741; assay: Toxicity of cannabinoids and cannabinoid glycosides in S. cerevisiae (final OD600); type: cell-based; settings: 3% ethanol; for Final OD600 of S. cerevisiae: 72 h; for toxicity to yeast (final OD600 after 72 h): YP media, 2% glucose, 30° C., concentration range tested
Method: It is well known that cannabinoids are toxic to microbes, and it is thought that these compounds are produced by cannabis plants as a defense mechanism against infection. […] Product toxicity in microbial strains engineered to produce cannabinoids will hinder high-level production of these molecules, glycosylating these molecules can be used to detoxify them and facilitate higher production titers in engineered microbial strains. […] Cells were inoculated to a starting OD600 of 0.1 and incubated at 30° C. and 200 RPM and the final OD600 was measured after 72 h.

[4] = In vitro enzymatic cascade converting sucrose and CBD to CBD glycosides; type: biochemical; settings: enzymes added: GmSuSy, Cs73Y
Excerpt: In the previous examples, in vitro glycosyl transferase assays required the addition of an “activated” sugar (e.g. UDP-glucose), which is typically an extremely expensive reagent, furthermore, other activated sugars e.g. UDP-rhamnose are not available commercially and must be custom synthesized at high-cost and difficulty. […] To facilitate the low-cost production of cannabinoid glycosides not only with glucose, but with alternative sugars, an enzymatic cascade was set up to convert cannabinoids and the simple sugar sucrose into various cannabinoid glycosides. The cascade is divided into 3 steps, in step 1 sucrose and uridine diphosphate (UDP) is converted to UDP-glucose by GmSuSy (SEQ ID NO: 209, 210), additionally generating fructose as a bi-product. In step 2, UDP-glucose is interconverted to alternative UDP-sugars using a range of enzymes. For example, conversion of UDP-glucose to UDP-galactose by BsGa/E, multiple enzymes can also be used to produce UDP-sugars via other UDP-sugar intermediates. For example, conversion of UDP-glucose to UDP-glucuronic acid by AtUGDH1 combined with conversion of UDP-glucuronic acid to UDP-xylose by AtUXS3. In step 3, glycosyl transferases convert the activated sugar and a cannabinoid acceptor to the corresponding cannabinoid glycoside. For example, conversion of UDP-rhamnose and CBD to CBD-1′-O-β-D-rhamnoside (OB13) by Cs73Y (SEQ ID NO: 157, 158).
Enzymes were purified and the in vitro assay performed as described in Example 13 and the reaction mixture set up as shown in table 57. Enzymes and co-factors were added as required for each individual reaction. Samples were extracted and analyzed as stated above.

| Compound | Conversion % (CBD to the glycoside) ([1]; enzyme PL-159(Pt88G_GA), in vitro 30° C. 24 h) [%] | solubility ([2]; phosphate buffered saline, pH 7.4, aqueous buffer, thermodynamic from solid) [mM] | Thermodynamic solubility [2] | Final OD600 of S. cerevisiae ([3]; 100 μM substrate added) | Final OD600 of S. cerevisiae ([3]; 200 μM substrate added) | Final OD600 of S. cerevisiae ([3]; 400 μM substrate added) | Final OD600 of S. cerevisiae ([3]; 800 μM substrate added) | toxicity to yeast (final OD600 after 72 h) [3] | % Conversion of CBD and sucrose to CBD glycoside [4] [%] | Conversion % (CBD to the glycoside) ([1]; enzyme PL-214(Cs73Y_GA)) [%] |
| --- | --- | --- | --- | --- | --- | --- | --- | --- | --- | --- |
| C=C(C)[C@@H]1CCC(C)=C[C@H]1c1c(O)cc(CCCCC)cc1O[C@@H]1O[C@H](CO)[C@@H](O)[C@H](O)[C@H]1O [OB1, CBD-1′-O-β-D-glucoside] | 75 | – | – | – | – | – | – | – | – | – |
| C=C(C)[C@@H]1CCC(C)=C[C@H]1c1c(O)cc(CCCCC)cc1O [CBD, cannabidiol, reference compound] | – | ≤ 0.0005 | Below Detection Limit | 9.3 | 8.2 | 6.7 | 4.7 | toxic to yeast | – | – |
| C=C(C)[C@@H]1CCC(C)=C[C@H]1c1c(O[C@@H]2O[C@H](CO)[C@@H](O)[C@H](O)[C@H]2O)cc(CCCCC)cc1O[C@@H]1O[C@H](CO)[C@@H](O)[C@H](O)[C@H]1O [OB6, CBD-1′-O-β-D-glucosyl-3′-O-β-D-glucoside] | – | – | 11.4 ± 0.75 mM | 9.1 | 8.8 | 9.5 | 8.8 | non-toxic at the concentration range tested | 91.3 | 57.5 |
